Test results taken from patent US5773459A, “Urea- and thiourea-type compounds” (Sugen, Inc., priority 1995, dated 1998).
Like-named read-outs stand apart in the source and are kept apart here.

Experiments:
HER2 = target: T1, HER2 (Homo sapiens, UniProt P04626); assay: HER2-ELISA, HER2-BT474 assay measuring whole cell HER2 activity; type: cell-based
T1 construct: a human breast tumor cell line which expresses high levels of HER2 kinase; host or cells: BT-474 human breast tumor cells
Procedure: (§1) Growth assays were carried out using human mammary epithelial SKBR3 (ATCC HTB30) cells (SKBR3 cells over-express HER2), SKOV3 (ATCC HTB77) human ovarian cancer cell line (SKOV3 cells also over-express HER2), A431 cells (A431 cells over-express EGFR) MCF7 human breast carcinoma cells, MCF7 cells overexpressing the HER2 kinase (MCF7-HER2), NIH3T3 cells, and NIH3T3 cells overexpressing the HER2 kinase (3T3-HER2.
HER2-BT474 assays measuring whole cell HER2 activity was carried out as described below:
2. […] The growth media is RPMI+10% FBS+GMS-G (Gibco supplement)+Glutamine.
3. A monoclonal anti-HER2 antibody is used in ELISA.
Incubate the cells in 5% CO2 at 37° C. overnight.
2. ELISA Plate Coating and Blocking
The antibody coated plates can be used up to 2 weeks, when stored at 4° C.
(b) On the day of use, remove the coating solution, replace with 200 μl of Blocking Buffer, shake the plate, and then remove the blocking buffer and wash the plate just before adding lysate.
(a) […] the drugs in serum-free condition. Before adding drugs, the old media
(b) Dilute drug stock (in 100% DMSO) 1:10 with RPMI, and transfer 10 μl/well of this solution to the cells to achieve a final drug DMSO concentration at 1%. Incubate the cells in 5% CO2 at 37° C.
(c) Prepare fresh cell lysis buffer (HNTG*)
(d) After drug preincubation for two hours remove all the solution from the plate, transfer HNTG* 100 μl/well to the cells, and shake for 10 minutes.
(e) Use a 12-channel pipette to scrape the cells from the plate, and homogenize the lysate by repeat aspiration and dispensing. Transfer all the lysate to the ELISA plate and shake for 1 hour.
(f) Remove the lysate, wash the plate, add anti-pTyr (1:3,000 with TBST) 100 μl/well, and shake for 30 minutes.
(g) Remove anti-pTyr, wash the plate, add goat anti-rabbit IgG conjugated antibody (1:5,000 with TBST) 100 μl/well, and shake for 30 minutes.
(h) Remove anti-rabbit IgG antibody, wash the plate, and add fresh ABTS/H2 O2 (1.2 μl 30% H2 O2 in 10 ml ABTS) 100 μl/well to the plate to start color development, which usually takes 20 minutes.

PDGFR-beta = target: T2, PDGFR-beta (Homo sapiens, UniProt P09619); assay: PDGF-R Cellular Assay (cellular kinase ELISA); type: cell-based
T2 construct: the human glioblastoma line U1242 that expresses PDGFR-beta; endogenous in cells; host or cells: U1242 (U1242 MG) human glioblastoma
T2 sequence (P09619 33-1106): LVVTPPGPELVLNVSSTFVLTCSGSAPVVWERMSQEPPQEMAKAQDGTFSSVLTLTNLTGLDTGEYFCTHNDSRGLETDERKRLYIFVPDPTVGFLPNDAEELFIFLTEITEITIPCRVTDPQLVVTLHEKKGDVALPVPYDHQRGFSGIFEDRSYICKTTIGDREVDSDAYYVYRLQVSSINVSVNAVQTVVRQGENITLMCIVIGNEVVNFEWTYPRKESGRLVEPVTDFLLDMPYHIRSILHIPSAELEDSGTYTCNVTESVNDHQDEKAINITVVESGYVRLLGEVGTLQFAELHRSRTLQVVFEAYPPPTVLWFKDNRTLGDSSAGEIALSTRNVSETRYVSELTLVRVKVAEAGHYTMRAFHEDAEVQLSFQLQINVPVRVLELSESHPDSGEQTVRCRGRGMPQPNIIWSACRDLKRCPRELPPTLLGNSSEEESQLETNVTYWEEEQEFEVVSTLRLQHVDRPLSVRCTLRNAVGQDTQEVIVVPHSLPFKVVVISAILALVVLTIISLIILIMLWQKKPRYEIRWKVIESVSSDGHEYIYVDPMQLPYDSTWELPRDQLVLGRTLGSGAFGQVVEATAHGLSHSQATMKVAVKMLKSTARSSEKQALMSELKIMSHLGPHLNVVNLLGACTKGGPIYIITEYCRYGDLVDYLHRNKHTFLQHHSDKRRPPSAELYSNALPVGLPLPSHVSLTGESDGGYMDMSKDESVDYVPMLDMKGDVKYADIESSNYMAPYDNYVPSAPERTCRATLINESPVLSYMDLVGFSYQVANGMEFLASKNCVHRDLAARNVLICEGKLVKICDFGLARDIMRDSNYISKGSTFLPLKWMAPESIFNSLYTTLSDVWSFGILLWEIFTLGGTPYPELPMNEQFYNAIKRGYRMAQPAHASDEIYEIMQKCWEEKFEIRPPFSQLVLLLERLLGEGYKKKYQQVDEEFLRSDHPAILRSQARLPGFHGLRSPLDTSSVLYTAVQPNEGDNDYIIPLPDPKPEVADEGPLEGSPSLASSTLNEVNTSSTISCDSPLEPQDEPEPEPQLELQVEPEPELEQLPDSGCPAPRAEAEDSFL
Procedure: as §1
The PDGF cellular kinase assay was carried out as follows: cells are lysed in 0.2M Hepes, 0.15M NaCl, 10% V/V glycerol, 0.04% Triton X-100, 5 mM EDTA, 5 mM Na+ vanadate and 2 mM Na+ pyrophosphate; cell lysates are then added to an ELISA plate coated with an anti-PDGF receptor antibody (Genzyme); ELISA plates are coated at 0.5 μg of antibody/well in 150 μl of PBS for 18 hours at 4° C. prior to the addition of the lysate; the lysate is incubated in the coated plates for 1 hour and then washed four times in TBST (35 mM Tris-HCl pH 7.0, 0.15M NaCl, 0.1% Triton X100); anti-phosphotyrosine antibody (100 μl in PBS) is added and the mixture is incubated for 30 minutes at room temperature; the wells were then washed four times in TBST, a secondary antibody conjugated to POD (TAGO) is added to each well, and the treated well are incubated for 30 minutes at room temperature; the wells are then washed four times in TBST, ABTS/H2 O2 solution is added to each well and the wells are incubated for two minutes; absorbance is then measured at 410 nm.
U1242 MG cells were plated in 96-well plates at a concentration of 5×10^4 cells/well in cultured media containing 0.5% FBS. The cells were incubated for 24 hours. The cells were then treated with a particular compound for 2 hours followed by the addition of 100 ng/ml PDGF-BB and incubation for 10 minutes.
Cells were lysed in 0.2M Hepes, 0.15M NaCl, 10% V/V glycerol, 0.04% Triton X-100, 5 mM EDTA, 5 mM Na+ vanadate and 2 mM Na+ pyrophosphate. Cell lysates were then added to an ELISA plate coated with an anti-PDGF receptor antibody (Genzyme). ELISA plates were coated at 0.5 μg of antibody/well in 150 μl of PBS for 18 hours at 4° C. prior to the addition of the lysate.
The lysate was incubated in the coated plates for 1 hour and then washed four times in TBST (35 mM Tris-HCl pH 7.0, 0.15M NaCl, 0.1% Triton X-100). Anti-phosphotyrosine antibody (100 μl in PBS) was added and the mixture was incubated for 30 minutes at room temperature. The wells were then washed four times in TBST, a secondary antibody conjugated to POD (TAGO) was added to each well, and the treated well were incubated for 30 minutes at room temperature. The wells were then washed four times in TBST, ABTS/H2 O2 solution was added to each well and the wells were incubated for two minutes. Absorbance was then measured at 410 nm.

[1] = BT474 cells, read-out: ELISA DATA: HER2 - (BT474)
[2] = U1242 MG cells, PDGF-BB stimulated, read-out: ELISA DATA: PDGFR

T1 sequence (P04626 23-1255): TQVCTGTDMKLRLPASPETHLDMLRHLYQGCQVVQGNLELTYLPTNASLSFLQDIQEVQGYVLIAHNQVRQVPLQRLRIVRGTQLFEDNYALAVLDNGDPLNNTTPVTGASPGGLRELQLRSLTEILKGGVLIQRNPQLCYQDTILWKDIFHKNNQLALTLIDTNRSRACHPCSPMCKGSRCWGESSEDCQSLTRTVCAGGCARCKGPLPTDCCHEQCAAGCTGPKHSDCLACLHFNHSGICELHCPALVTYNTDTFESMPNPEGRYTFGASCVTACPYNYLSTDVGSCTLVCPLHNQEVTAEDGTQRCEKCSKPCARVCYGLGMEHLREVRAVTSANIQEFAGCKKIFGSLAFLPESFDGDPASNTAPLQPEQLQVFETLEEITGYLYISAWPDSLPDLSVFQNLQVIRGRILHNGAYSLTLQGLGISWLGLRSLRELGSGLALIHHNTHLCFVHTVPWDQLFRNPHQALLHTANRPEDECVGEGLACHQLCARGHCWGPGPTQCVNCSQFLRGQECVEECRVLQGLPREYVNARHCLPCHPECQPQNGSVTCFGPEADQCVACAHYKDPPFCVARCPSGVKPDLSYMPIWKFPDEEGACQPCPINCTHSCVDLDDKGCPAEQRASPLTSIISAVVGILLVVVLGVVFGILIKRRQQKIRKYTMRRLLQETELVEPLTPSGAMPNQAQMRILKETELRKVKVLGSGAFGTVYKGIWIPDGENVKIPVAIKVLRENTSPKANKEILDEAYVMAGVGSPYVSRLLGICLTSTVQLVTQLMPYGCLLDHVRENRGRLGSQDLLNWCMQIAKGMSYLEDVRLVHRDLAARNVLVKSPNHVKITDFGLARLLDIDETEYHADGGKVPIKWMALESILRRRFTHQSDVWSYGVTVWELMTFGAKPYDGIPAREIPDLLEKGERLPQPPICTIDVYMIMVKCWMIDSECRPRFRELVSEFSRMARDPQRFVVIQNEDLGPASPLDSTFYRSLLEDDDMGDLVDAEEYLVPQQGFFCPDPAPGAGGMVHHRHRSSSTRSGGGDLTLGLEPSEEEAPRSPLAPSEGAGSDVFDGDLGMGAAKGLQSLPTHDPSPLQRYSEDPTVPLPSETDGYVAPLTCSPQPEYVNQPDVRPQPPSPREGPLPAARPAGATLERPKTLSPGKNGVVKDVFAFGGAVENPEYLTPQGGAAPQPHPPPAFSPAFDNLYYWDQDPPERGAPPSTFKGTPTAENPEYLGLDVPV

| IC50 (HER2; [1]) [µM] | IC50 (PDGFR-beta; [2]) [µM] | SMILES | IC50 (HER2) [µM] | IC50 (PDGFR-beta) [µM] |
| --- | --- | --- | --- | --- |
| 11.8 | > 50 | CC(C)S(=O)(=O)c1csc(NC(=O)Nc2ccc(C(C)(C)C)cc2)c1Cl [Example Z1, N-[3-Chloro-4-(isopropylsulfonyl)thien-2-yl]-N'-(4-t-butylphenyl)urea] | – | – |
| 3.2 | > 50 | CC(C)S(=O)(=O)c1csc(NC(=O)Nc2cc(C(F)(F)F)cc(C(F)(F)F)c2)c1Cl [Example Z2, N-[3-Chloro-4-(isopropylsulfonyl)thien-2-yl]-N'-(3,5-di-trifluoromethylphenyl)urea] | – | – |
| – | – | O=C(Nc1ccc(SC(F)(F)F)cc1)Nc1ccc(Oc2ccc(Cl)cc2Cl)nc1 [Example Z3] | 9.9 | > 100 |
| 9.3 | > 100 | N#Cc1ccc(NC(=S)Nc2ccc(S(=O)(=O)N3CCCCC3)cc2)cc1 [Example Z4, N-(4-Cyanophenyl)-N'-[4-[(piperid-1-yl)sulfonyl]phenyl]thiourea] | – | – |
